Where two headings read alike, the source gives them in different places.
Columns and labels:
[1] = system: alkaline phosphatase (ALP); settings: for RFU Score (10 μM): 154-analog library, C2C12, duplicate; for RFU Score Threshold ≥ 800: Ex 450/Em 580 nm, rank in brackets not taken; for Fluorescence Z Score Threshold ≥ 10: Z score on DMSO control wells; for Fluo. Z Score: SAR of library and proprietary analogs, AttoPhos assay, C2C12
From the text: (§1) To identify small-molecule activators of osteoblast differentiation, we measured ALP activity using a fluorescent emission assay as a reporter for enzymatic digestion of ALP substrate in lysates derived from C2C12 myoblasts. […] Therefore, before screening, the assay was calibrated using recombinant human BMP4 protein as a positive control. Compounds were robotically deposited onto 384-well plates and then overlaid by C2C12 cells for a 4-day culture period, followed by lysis and fluorescent substrate assays (FIG. 1A; Table 1). To ensure uniformity, C2C12 cells were maintained in normal culture medium containing 10% fetal bovine serum, and lysis and substrate addition achieved using a microplate multidrop device. The primary screen (Table 2) encompassed greater than 47,000 small molecules tested at a final concentration of 10 μM.
(§2) For the primary screen, library compounds were distributed onto 384-well microplates (Greiner Bio-One 781091) at a final concentration of 10 μM in culture medium using a Perkin Elmer Janus automated workstation and WinPrep Version 4.8.3.315. Positive (rhBMP4, 1 ng/ml, R&D Systems) and negative controls (DMSO, 0.2%) were manually added to each plate by multichannel pipet. C2C12 cells were seeded onto compounds and controls at a density of 2000/well using a Thermo Multidrop Combi reagent dispenser and cultured for 4 days at 37° C., 5% CO2. Culture medium was aspirated using a BioTek EL406 plate washer and cells were lysed in RIPA buffer (Millipore 20-188) at ambient temperature for 10 minutes. 10 μl fluorescent alkaline phosphatase substrate (AttoPhos, Promega S1000) was added to lysates and incubated an additional 10 minutes before measuring the fluorescence (Excitation 450 nm/Emission 580 nm) on a BioTek Synergy Neo2 stacking microplate reader. Plates were processed and relative fluorescence raw values measured in stacks of 10-20. The data were processed using Collaborative Drug Discovery web-based software (CDD Vault) to determine Z score calculated on DMSO control wells and percent activation normalized against positive and negative controls (NPA). Cherry-picked hit candidates were re-tested in concentration response experiments, from which 4 candidates were chosen and purchased for further testing from either ChemBridge or Enamine, based on availability.
(§3) We also purchased a library of 154 structural chemical analogs assembled by ChemBridge Corp. from available screening library compounds.

[2] = system: alkaline phosphatase (ALP); assay: cells; settings: Mus musculus; for activation at 10 µM: C2C12, 96 h
From the text: as §1, §2, §3

[3] = primary screen, 10 μM, C2C12, 4 days
[4] = read-out: NPA Score Threshold ≥ 5.0 (normalized percent activation)

SMILES | RFU Score (10 μM) ([1]; 10 μM) | activation at 10 µM [2] [%] | also measured
CCN1CCN(CCOc2ccccc2-c2[nH]cnc2-c2ccccc2)CC1 [RU-0253941] | 547 | 9.34 | –
Cc1cc(C)c2[nH]c(=O)c(CN3CCCn4cncc4C3)cc2c1 [RU-0424546] | 460 | 6.3 | –
Cc1cc(C)c2[nH]c(=O)c(-c3ncc[nH]3)cc2c1 [RU-0424549] | 445 | 5.75 | –
CO[C@H]1CN(C(=O)c2[nH]cnc2-c2ccccc2)CC[C@H]1N [RU-0424467] | 508 | 7.99 | –
Cc1cc(C)c2[nH]c(=O)c(C3c4nc[nH]c4CCN3Cc3ccco3)cc2c1 (stereo not shown) [RU-0424474] | 566 | 10 | –
CCc1cn[nH]c1C1CCN(C(=O)c2[nH]cnc2-c2ccccc2)CC1 [RU-0424485] | 515 | 8.24 | –
Cc1cc(C)c2[nH]c(=O)c(-c3nccn3CCCN(C)C)cc2c1 [RU-0424539] | 565 | 10 | –
COc1cccc(-c2[nH]cnc2-c2ccccc2)c1OCCN(C)C [RU-0247047] | 558 | 9.73 | –
Cc1cc(C)c2[nH]c(=O)c(CN3CCN4CCN(C)CC4C3)cc2c1 (stereo not shown) [RU-0238998] | 469 | 6.62 | –
O=C(CCc1n[nH]c2c1CCCC2)N1CCC2(CCCO2)CC1 [RU-0250369] | – | – | RFU Score Threshold ≥ 800 [1, 3]: Below Threshold; Fluorescence Z Score Threshold ≥ 10 [1, 3]: Below Threshold; activation at 10 µM [2, 4]: 5.46%
Cc1noc(C(C)N(C)C(=O)c2[nH]cnc2-c2ccccc2)n1 (stereo not shown) [RU-0424521] | 604 | 11.3 | –
c1ccc2c(N3CCN(Cc4cc5n(n4)CCCNC5)CC3)nsc2c1 [RU-0261349] | – | – | RFU Score Threshold ≥ 800 [1, 3]: 884 (18); Fluorescence Z Score Threshold ≥ 10 [1, 3]: 11.32 (22); activation at 10 µM [2, 4]: 5.04%
Cc1cc(C)c2[nH]c(=O)c(CN(C)Cc3nc(-c4cccnc4)no3)cc2c1 [RU-0424447] | 297 | 0.54 | –
CCn1nc(C(=O)O)c2c1CCN(C(=O)c1[nH]cnc1-c1ccccc1)C2 [RU-0424526] | 545 | 9.28 | –
Cc1cc(C)c2[nH]c(=O)c(CN(C)Cc3ncccc3C)cc2c1 [RU-0424532] | 627 | 12.2 | –
Cc1cc(C)c2[nH]c(=O)c(CN(C)CCn3ccnc3C)cc2c1 [RU-0424498] | 486 | 7.21 | –
c1ccc(-c2nc[nH]c2-c2ccc(OCCn3ccnc3)cc2)cc1 [RU-0249817] | 561 | 9.84 | –
CO[C@@H]1CCOC[C@H]1NC(=O)c1[nH]cnc1-c1ccccc1 [RU-0424483] | 491 | 7.37 | –
Cc1cc(C)c2[nH]c(=O)c(CN3CCCC(N(C)C)CC3)cc2c1 (stereo not shown) [RU-0424506] | 364 | 2.9 | –
CN(C)CCC1CN(C(=O)c2[nH]cnc2-c2ccccc2)CCO1 (stereo not shown) [RU-0231240] | 596 | 11.1 | –
Cc1cc(C)c2[nH]c(=O)c(CN3CCCC(CS(C)(=O)=O)C3)cc2c1 (stereo not shown) [RU-0424457] | 285 | 0.13 | –

SMILES | RFU Score (10 μM) ([1]; 10 μM) | activation at 10 µM [2] [%] | also measured
Cc1cc(C)c2[nH]c(=O)c(CN3CCCC(c4ncc[nH]4)C3)cc2c1 (stereo not shown) [RU-0424536] | 516 | 8.27 | –
Cc1ccnc(CC(C)N(C)Cc2cc3cc(C)cc(C)c3[nH]c2=O)c1 (stereo not shown) [RU-0424496] | 516 | 8.27 | –
CN1CCN(C(=O)c2[nH]cnc2-c2ccccc2)CC1C(=O)O (stereo not shown) [RU-0424442] | 287 | 0.18 | –
O=C(c1[nH]cnc1-c1ccccc1)N1CCOC(c2ccc(F)cc2)C1 (stereo not shown) [RU-0424531] | 478 | 6.93 | –
Nc1nnc(C2CCN(C(=O)c3[nH]cnc3-c3ccccc3)CC2)[nH]1 [RU-0424511] | 467 | 6.54 | –
CC1(C)OB(c2c(C(=O)O)c(=O)[nH]c3ccc(Cl)cc23)OC1(C)C [BT353] | – | – | Fluo. Z Score [1]: 3.15 ± 0.34; EC50 ([2]; C2C12): 5.31 µM
CCCn1cc(NC(=O)Cn2cc(-c3[nH]cnc3-c3ccccc3)cn2)nn1 [RU-0424514] | 386 | 3.69 | –
Cc1nn(C)c(N2CCOCC2)c1-c1[nH]cnc1-c1ccccc1 [RU-0424450] | 288 | 0.24 | –
CC(C)N1CCC(SCc2ccc(F)cc2C#N)C1=O (stereo not shown) [RU-0201425] | – | – | RFU Score Threshold ≥ 800 [1, 3]: Below Threshold; Fluorescence Z Score Threshold ≥ 10 [1, 3]: Below Threshold; activation at 10 µM [2, 4]: 5.69%
CC1CCN(C(=O)COc2ccccc2-c2[nH]cnc2-c2ccccc2)CC1 [RU-0228904] | 590 | 10.9 | –
c1ccc(-c2nc[nH]c2-c2ccccc2Cn2cccn2)cc1 [RU-0222072] | 425 | 5.05 | –
O=C(c1[nH]cnc1-c1ccccc1)N1CCc2onc(-c3ccccc3)c2C1 [RU-0424446] | 325 | 1.54 | –
CCCN(Cc1nccn1C)C(=O)c1[nH]cnc1-c1ccccc1 [RU-0424464] | 330 | 1.72 | –
Cc1cc(C)c2[nH]c(=O)c(-c3nccn3CCSc3cnn[nH]3)cc2c1 [RU-0424492] | 455 | 6.11 | –
CN(C)CC1(O)CCCN(S(=O)(=O)c2ccc(-c3ccccc3)cc2)CC1 (stereo not shown) [RU-0259574] | – | – | RFU Score Threshold ≥ 800 [1, 3]: 903 (16); Fluorescence Z Score Threshold ≥ 10 [1, 3]: Below Threshold; activation at 10 µM [2, 4]: 9.87%
CO[C@H]1CC[C@@]2(OC)CCN(C(=O)c3[nH]cnc3-c3ccccc3)[C@H]2C1 [RU-0424522] | 458 | 6.21 | –
Cc1nc2cc(C(=O)N3CCNC(=O)C3)ccc2s1 [RU-0243566] | – | – | RFU Score Threshold ≥ 800 [1, 3]: Below Threshold; Fluorescence Z Score Threshold ≥ 10 [1, 3]: Below Threshold; activation at 10 µM [2, 4]: 5.55%
O=C(c1[nH]cnc1-c1ccccc1)N1CCc2onc(-c3cccc(F)c3)c2C1 [RU-0424505] | 326 | 1.56 | –
Cc1cc(C)c2[nH]c(=O)c(CN(C)CCc3scnc3C)cc2c1 [RU-0424444] | 446 | 5.79 | –
CCOc1cccc(-c2[nH]cnc2-c2ccccc2)c1OCC(=O)O [RU-0424443] | 306 | 0.87 | –
O=C(c1[nH]cnc1-c1ccccc1)N1CCC(Oc2ccccc2)C1 (stereo not shown) [RU-0424523] | 419 | 4.84 | –

SMILES | RFU Score (10 μM) ([1]; 10 μM) | activation at 10 µM [2] [%] | also measured
COc1ccc(-c2[nH]nnc2-c2ccccc2)cc1Cn1cncn1 [RU-0262240] | 496 | 7.55 | –
CCc1cnc(C)nc1N1CCCC(Cc2cccnc2)C1 (stereo not shown) [RU-0238003, 5-ethyl-2-methyl-4-[3-(pyridin-3-ylmethyl)piperidin-1-yl]pyrimidine] | – | – | RFU Score Threshold ≥ 800 [1, 3]: 1340 (3); Fluorescence Z Score Threshold ≥ 10 [1, 3]: 36.44 (3); NPA Score Threshold ≥ 5.0 (normalized percent activation) ([1]; primary screen, 10 μM, C2C12, 4 days, normalized against rhBMP4 positive and DMSO negative controls): Below Threshold; EC50 ([2]; C2C12, read-out: Measured EC50): > 40 µM
CCN(CCN(C)C)C(=O)c1cccc(-c2[nH]cnc2-c2ccccc2)c1 [RU-0424479] | 525 | 8.57 | –
Cc1c(-c2ccccc2F)[nH]c2ccc(CNS(=O)(=O)N3CCCC3)cc12 [RU-0225107] | – | – | RFU Score Threshold ≥ 800 [1, 3]: 805 (34); Fluorescence Z Score Threshold ≥ 10 [1, 3]: Below Threshold; activation at 10 µM [2, 4]: 5.07%
Cc1cc(C)c2[nH]c(=O)c(CN3CCCC4(C3)CN(C)C(=O)O4)cc2c1 (stereo not shown) [RU-0424471] | 524 | 8.55 | –
CN(CC1COCCO1)C(=O)c1ccc(-c2[nH]cnc2-c2ccccc2)cc1 (stereo not shown) [RU-0424529] | 504 | 7.85 | –
c1ccc(-c2nc(-c3[nH]cnc3-c3ccccc3)cs2)cc1 [RU-0424544] | 450 | 5.93 | –
Cc1cc(C)c2[nH]c(=O)c(-c3nccn3CCc3cn[nH]c3)cc2c1 [RU-0253216] | 341 | 2.09 | –
Cc1c(-c2[nH]cnc2-c2ccccc2)c2ccccc2n1CC(N)=O [RU-0424547] | 518 | 8.34 | –
Cc1cc(C)c2[nH]c(=O)c(CN3CCC(CN)C3)cc2c1 (stereo not shown) [RU-0424452] | 328 | 1.65 | –
c1ccc(-c2nc[nH]c2-c2ccccc2OCCCN2CCOCC2)cc1 [RU-0248967] | 512 | 7.58 | –
C=CCN(Cc1ccc(F)cc1)C(=O)c1c[nH]c2c(C)cccc2c1=O [RU-0268068] | – | – | RFU Score Threshold ≥ 800 [1, 3]: Below Threshold; Fluorescence Z Score Threshold ≥ 10 [1, 3]: Below Threshold; activation at 10 µM [2, 4]: 5.81%
N#Cc1ccccc1-c1ccc(-c2[nH]cnc2-c2ccccc2)o1 [RU-0424504] | 309 | 0.96 | –
O=C(Nc1ccc(O)cc1)c1cc2cc(Cl)ccc2[nH]c1=O [BT351] | – | – | Fluo. Z Score [1]: 1.48 ± 1.26; EC50 ([2]; C2C12): 20.9 µM
COc1cccc(-c2[nH]cnc2-c2ccccc2)c1OCCn1ccnc1 [RU-0265092] | 478 | 6.93 | –
CC(=O)Nc1ccc2nc(-c3[nH]cnc3-c3ccccc3)ccc2c1 [RU-0260066] | 456 | 6.14 | –
CO[C@H]1CN(Cc2cccc(Cl)c2Cl)CC[C@H]1N [RU-0221236] | – | – | RFU Score Threshold ≥ 800 [1, 3]: Below Threshold; Fluorescence Z Score Threshold ≥ 10 [1, 3]: Below Threshold; activation at 10 µM [2, 4]: 5.13%
Cc1cc(C)c2[nH]c(=O)c(CN3CCCC(N4CCCC4=O)C3)cc2c1 (stereo not shown) [RU-0424458] | 306 | 0.87 | –
CCCC(C)c1nnc(NC(=O)c2ccccc2-n2cncn2)s1 (stereo not shown) [RU-0242581] | – | – | RFU Score Threshold ≥ 800 [1, 3]: 849 (24); Fluorescence Z Score Threshold ≥ 10 [1, 3]: Below Threshold; activation at 10 µM [2, 4]: 5.51%
